Legend:
MMP10 = assay: EMT on target screen, MMP10 read-out; type: cell-based, human; conditions: for OT MMP10 Screen Z-score 2: as E13, duplicate 2; for OT MMP10 Screen Z-score 1: robust Z-score, HBEC donor Br299, duplicate 1, cut-off Z ≦ −1.25
HBEC [1] = tested on: HBEC
Fibronectin (FN) = assay: EMT on target screen, FN read-out; type: cell-based, human; conditions: for OT FN Screen Z-score 2: as E11, duplicate 2; for Both (shRNA is a hit again in both OT assays, Yes/No): on target validation, Table 16; for OT FN Screen Z-score 1: robust Z-score, HBEC donor Br299, duplicate 1, cut-off Z ≦ −1.25
HBEC [2] = assay: CellTiter-Blue (CTB) cell viability assay in on target screen
HBEC [3] = assay: ATPlite secondary toxicity assay
Source text: In addition, a second toxicity assay was developed using the ATPlite (Perkin Elmer) assay to evaluate possible toxicity caused by target viruses. With this assay ATP, which is produced by metabolically active cells, reacts with luciferase and D-luciferin to emit light. This assay is based on the luciferase-mediated and ATP-dependent conversion of D-luciferin into oxyluciferin resulting in emission of light. The emitted light, measured as luminescence, is proportional to the ATP concentration in the sample and thus to the number of viable cells.
A staurosporin concentration curve (two-fold dilution ranging from 1 to 0.03 μM) was added to each cell plate as a reference for toxicity and the ATPlite read-out was performed.
The data after log transformation and robust Z-score normalization based on negatives was used for the analysis of the results.

| Molecule | OT MMP10 Screen Z-score 2 (MMP10) | OT MMP10 Screen Z-score 1 (MMP10) | OT CTB assay Z-score 1 (HBEC [1]) | OT CTB assay Z-score 2 (HBEC [1]) | OT FN Screen Z-score 2 (Fibronectin (FN)) | Both (shRNA is a hit again in both OT assays, Yes/No) (Fibronectin (FN)) | OT FN Screen Z-score 1 (Fibronectin (FN)) | average Z-score of CTB data (HBEC [2]; 0.03 μM staurosporin, lowest concentration of the standard curve) | Z-score of CTB data (HBEC [2]; 0.06 μM staurosporin) | toxicity (HBEC [3]; 0.6 μM staurosporin treatment) | average Z-score (HBEC [3]; 0.6 μM staurosporin, robust Z-score on negatives) | luminescence at highest concentration of staurosporin used (HBEC [3]; concentration curve 1 to 0.03 μM) |
| --- | --- | --- | --- | --- | --- | --- | --- | --- | --- | --- | --- | --- |
| 73 (GAAACCATCCTTTCTTGAA; chemistry not given here) [compound 73] | 0.06 | -0.19 | -1.31 | -2.09 | -2.91 | no | -2.09 |  |  |  |  |  |
| 74 (AGACCTGGTCTACATCGAC; chemistry not given here) [compound 74] | -2.12 | -2.88 | -8.40 | -6.74 | -4.17 | no | -2.80 |  |  |  |  |  |
| 75 (TCGCTAGGTATGAATAACC; chemistry not given here) [compound 75] | -0.75 | 0.15 | -0.46 | -2.90 | -2.58 | yes | -2.04 |  |  |  |  |  |
| CN[C@@H]1C[C@H]2O[C@@](C)([C@@H]1OC)n1c3ccccc3c3c4c(c5c6ccccc6n2c5c31)C(=O)NC4 [staurosporin] |  |  |  |  |  |  |  | within the same range as the control panel and the trigger only samples | decreased clearly | 30% | −5.5 | decreased the luminescence to near background signal |

From patent US20160003808A1, “MOLECULAR TARGETS AND COMPOUNDS, AND METHODS TO IDENTIFY THE SAME, USEFUL IN THE TREATMENT OF DISEASES ASSOCIATED WITH EPITHELIAL MESENCHYMAL TRANSITION” (GALAPAGOS NV, priority 2013, published 2016)
